Data reported in US11564919B1, “Small molecule inhibitors for treatment of alpha viruses” (priority 2021, dated 2023).
“Also recorded” adds a separate entry of the source.

What was measured:
Zika virus (ZIKV) = type: cell-based
CHIKV 181/25 [1] = type: cell-based, Chikungunya virus
VEEV TC-83 = type: cell-based, Venezuelan Equine Encephalitis Virus
CHIKV-GFP reporter virus = assay: microbe, parasite or virus in culture; type: cell-based, Chikungunya virus (CHIKV) strain 181/25; conditions: for IC50: Chikungunya virus, HeLa, read-out: IC50 against CHIKV-GFP reporter virus
CHIKV 181/25 [2] = type: cell-based, Chikungunya virus; remark: listed apart in the source
RVFV MP12 = type: cell-based, Rift Valley fever virus
HeLa cells = conditions: 30 μM, 48 hours
A549 cells = conditions: 30 μM, 48 hours

SMILES | ZIKV viral titer (Zika virus (ZIKV)) | CHIKV 181/25 viral titer by time of compound addition (CHIKV 181/25 [1]) | percentage of VEEV TC-83 infected cells (VEEV TC-83) | IC50 (CHIKV-GFP reporter virus) [nM] | infection of CHIKV 181/25 (CHIKV 181/25 [2]) | viral titer of RVFV (RVFV MP12) | VEEV TC-83 infection (VEEV TC-83) | CHIKV-GFP fluorescence, relative percent infection (CHIKV-GFP reporter virus) | reduction of HeLa cell viability (HeLa cells) [%] | reduction of A549 cell viability (A549 cells) [%]
Sc1nnc2c(n1)[nH]c1ccccc12 [Compound III, 5H-[1,2,4]Triazino[5,6-b]indole-3-thiol] | some minimal effect | relatively similar reduction of viral titer across all timepoints | reduced the percentage of VEEV TC-83 infected cells | 2820 | didn't reduce infection |  |  |  |  | 
O=C(/C=C/c1ccc2c(c1)OCO2)N1CCN(Cc2nc(-c3ccco3)cs2)CC1 [Compound I, (2E)-3-(2H-1,3-benzodioxol-5-yl)-1-(4-{[4-(furan-2-yl)-1,3-thiazol-2-yl]methyl}piperazin-1-yl)prop-2-en-1-one] | no obvious reduction | relatively similar reduction of viral titer across all timepoints |  | 10900 |  | minimal effectiveness | the only compound reducing VEEV TC-83 infection | more effective in A549 cells |  | 
Cn1c(=N)sc2c3ccccc3ccc21 [Compound IV, 3-methyl-2H,b3H-naphtho[2,1-d][1,3]thiazol-2-imine] | strong reduction | strongest reduction with pre-treatment, with lessened efficacy at each consecutive timepoint; also recorded: consecutively reduced levels of efficacy at later timepoints | reduced the percentage of VEEV TC-83 infected cells | 2590 |  | significantly reduced titer |  | greater inhibition of virus infection in HeLa cells | 23.8 | 29
